# Where two headings read alike, the source gives them in different places.
# Columns and labels:
# [1] = Dissolution of purchased BITC and PEITC in safflower oil (how much can be stored in the oil); assay type: physicochemical; conditions: composition in safflower oil (78.91 % volume oil)
# From the text: BITC and PEITC were purchased from Aldrich (Sigma-Aldrich, Milwaukee, Wis.) and dissolved in safflower oil to determine how much of the non-polar isothiocyanates could be stored in the oil.
# [2] = Solubility in water
# Procedure: Garden cress powder, prepared by drying at 45° C. and containing about […] BITC, and watercress powder, prepared by drying at 50° C. and containing about […] PEITC, were mixed in equal parts. From the mixture, 500 mg were added to a 50 mL conical vial to which 10 mL of water was added and the mixture homogenized for 2 minutes. The mixture was extracted twice with 10 mL safflower oil using homogenization at level 6 (Omni 5000 Mixer) for one minute and centrifuged for 3 minutes at 8,000×g. The oil fractions were collected, pooled and the volume brought up to 25 mL.
smiles,measurement,setting,value
"S=C=NCc1ccccc1 [BITC, Benzyl isothiocyanate]",% Volume,[1],11.50 % Volume
same,ppm (mg/L),[1],"129,430 ppm (mg/L)"
same,solubility in water,"[2]; water, no test described",not soluble in water
"S=C=NCCc1ccccc1 [PEITC, phenethyl isothiocyanate]",% Volume,[1],9.59 % Volume
same,ppm (mg/L),[1],"104,540 ppm (mg/L)"
same,solubility in water,[2],not soluble in water
